Measured values: patent US20030215462A1, “Use of UGT inhibitors to increase bioavailability” (priority 2001, published 2003)
Where “and” joins values, the source holds several entries; their conditions need not be identical. Identical values can stand only once.

Tests used:
[1] = system: UGT enzymes of pooled human jejunum microsomes; test: Inhibition of raloxifene glucuronidation (G1, G2) in pooled human jejunum microsomes; format: biochemical; settings: jejunum HJ61
Procedure: Compounds were eluted using a binary solvent gradient system. […] Solvent B was methanol. […] Detection was at 280 nm.
Standardized incubations utilized […] microsomal protein, 1 mM UDPGA and a 30 min incubation time.

[2] = molecular target: T1, UGT enzymes of human liver microsomes (Homo sapiens, UniProt P16662); test: Inhibition of zidovudine glucuronidation in human liver microsomes; format: biochemical; settings: liver lot 062101
T1 construct: residual metabolism (percentage of control), zidovudine glucuronidation; other: liver lot 062101; residual metabolism (percentage of control), zidovudine glucuronidation; residual metabolism (percentage of control)
T1 sequence (P16662 1-529): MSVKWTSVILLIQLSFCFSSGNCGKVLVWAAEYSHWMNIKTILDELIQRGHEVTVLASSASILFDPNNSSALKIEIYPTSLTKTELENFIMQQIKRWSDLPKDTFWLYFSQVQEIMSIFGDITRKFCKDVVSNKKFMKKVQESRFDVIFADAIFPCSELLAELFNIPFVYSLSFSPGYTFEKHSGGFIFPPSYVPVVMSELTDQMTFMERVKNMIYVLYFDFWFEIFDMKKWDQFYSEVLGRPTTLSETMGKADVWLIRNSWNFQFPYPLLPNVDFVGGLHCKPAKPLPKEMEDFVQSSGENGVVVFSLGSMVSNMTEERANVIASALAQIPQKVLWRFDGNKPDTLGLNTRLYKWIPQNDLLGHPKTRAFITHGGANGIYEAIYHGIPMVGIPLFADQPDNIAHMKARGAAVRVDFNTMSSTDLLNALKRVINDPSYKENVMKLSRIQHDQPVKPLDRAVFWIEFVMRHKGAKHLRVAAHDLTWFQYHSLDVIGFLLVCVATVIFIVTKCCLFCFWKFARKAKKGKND
Procedure: Compounds were eluted using a binary solvent gradient system where solvent A was dilute phosphoric acid (pH 3) and solvent B was acetonitrile.
Standardized incubations utilized 500 μM zidovudine substrate, 1 mg/ml microsomal protein, 5 mM UDPGA and a 30 min incubation time. […] Int.

[3] = system: UGT enzymes of human liver microsomes; test: Inhibition of estradiol (E2) glucuronidation in human liver microsomes; format: biochemical; settings: E2 50 μM
Text: (§1) Compounds were eluted using a binary solvent gradient system where solvent A was dilute phosphoric acid (pH 3) and solvent B was 80:20 acetonitrile-methanol. […] Detection was at 280 nm.

[4] = system: T2, UGT enzymes of human liver microsomes; test: as above; format: biochemical; settings: liver 032101; E2 50 μM; inhibitor 100 μM
T2 construct: residual metabolism (% of control), E2-3-β-D-glucuronide; other: liver 032101; residual metabolism (% of control), E2-3-β-D-glucuronide
Text: as §1

[5] = system: UGT enzymes of pooled human jejunum microsomes; test: Inhibition of 2ME2 glucuronidation (MG1) in pooled human jejunum microsomes; format: biochemical; settings: jejunum HJ61, 2ME2 50 μM
Text: as §1

UGT1A8 = molecular target: T3, UGT1A8 (Homo sapiens, UniProt Q9HAW9); test: Inhibition of raloxifene glucuronidation by recombinant UGT1A8 Supersomes; settings: for activity at 15 min, 10 µM: human, Supersomes with recombinant human UGT1A8, pH 7.5, probe raloxifene 50 μM, inhibitor 10 μM
T3 sequence (Q9HAW9 26-530): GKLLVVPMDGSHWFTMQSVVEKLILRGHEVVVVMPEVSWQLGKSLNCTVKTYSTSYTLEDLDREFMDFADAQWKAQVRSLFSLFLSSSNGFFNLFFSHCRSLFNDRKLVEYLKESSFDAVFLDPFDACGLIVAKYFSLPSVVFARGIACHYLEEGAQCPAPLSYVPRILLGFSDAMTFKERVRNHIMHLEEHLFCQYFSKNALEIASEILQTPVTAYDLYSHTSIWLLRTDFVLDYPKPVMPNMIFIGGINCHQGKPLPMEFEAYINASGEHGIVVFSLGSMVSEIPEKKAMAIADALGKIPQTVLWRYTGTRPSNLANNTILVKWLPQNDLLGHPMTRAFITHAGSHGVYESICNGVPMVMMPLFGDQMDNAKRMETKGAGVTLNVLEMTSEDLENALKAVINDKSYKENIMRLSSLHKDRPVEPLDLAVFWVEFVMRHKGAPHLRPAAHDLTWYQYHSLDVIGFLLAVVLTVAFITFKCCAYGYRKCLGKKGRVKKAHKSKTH
Procedure: Compounds were eluted using a binary solvent gradient system. Solvent A was water brought to pH 8 with NH4OH. Solvent B was methanol. Solvent flow rate was 1 ml/min and the column temperature was maintained at 50° C. Detection was at 280 nm. […] The system was then returned to the initial conditions and equilibrated for 3 min.

[6] = system: T4, UGT enzymes of human liver microsomes; test: Inhibition of estradiol (E2) glucuronidation in human liver microsomes; format: biochemical; settings: liver 032101, E2 50 μM
T4 construct: residual metabolism (% of control), E2-17-β-D-glucuronide; other: liver 032101; residual metabolism (% of control), E2-17-β-D-glucuronide
Text: as §1

UGT1A9 = molecular target: T5, UGT1A9 (Homo sapiens, UniProt O60656); test: Inhibition of raloxifene glucuronidation by recombinant UGT1A9 Supersomes; settings: for Inhibition of raloxifene glucuronidation, UGT1A9, first line per inhibitor (G1): first line (G1, metabolite not given); for Inhibition of raloxifene glucuronidation, UGT1A9, first line per inhibitor (G1) / Inhibition of raloxifene glucuronidation, UGT1A9, second line per inhibitor (G2): raloxifene 50 μM, 250 μg/ml Supersomes, 1 mM UDPGA, 15 min; for activity at 15 min, 5 µM / activity at 15 min, 10 µM / activity at 15 min, 25 µM / activity at 15 min, 50 µM: human, Supersomes with recombinant human UGT1A9, pH 7.5, probe raloxifene 50 μM; for Inhibition of raloxifene glucuronidation, UGT1A9, second line per inhibitor (G2): second line (G2, metabolite not given)
T5 sequence (O60656 26-530): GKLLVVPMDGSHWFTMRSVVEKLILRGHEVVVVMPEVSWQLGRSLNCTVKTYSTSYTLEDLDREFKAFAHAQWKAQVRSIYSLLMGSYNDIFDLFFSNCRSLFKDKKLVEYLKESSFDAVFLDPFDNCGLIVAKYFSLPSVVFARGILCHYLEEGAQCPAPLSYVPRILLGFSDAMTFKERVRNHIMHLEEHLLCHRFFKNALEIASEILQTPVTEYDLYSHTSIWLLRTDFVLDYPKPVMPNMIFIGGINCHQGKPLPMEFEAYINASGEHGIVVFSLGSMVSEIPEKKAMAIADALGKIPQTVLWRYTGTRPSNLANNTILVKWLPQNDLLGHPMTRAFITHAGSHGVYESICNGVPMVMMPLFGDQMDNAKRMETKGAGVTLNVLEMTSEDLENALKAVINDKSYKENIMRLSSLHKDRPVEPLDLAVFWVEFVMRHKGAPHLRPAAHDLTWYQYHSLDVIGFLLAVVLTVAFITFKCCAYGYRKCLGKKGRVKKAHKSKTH

O=C(O)c1cc(-c2ccc(F)cc2F)ccc1O [Diflunisal, reference compound]
% of control metabolism, raloxifene G1 ([1]; inhibitor 50 μM): 69 (3) %
% of control metabolism, raloxifene G2 ([1]; inhibitor 50 μM): 93 (6) %
residual metabolism (percentage of control), zidovudine glucuronidation ([2]; inhibitor 500 μM): 74 (2) %
residual metabolism (percentage of control), zidovudine glucuronidation ([2]; inhibitor 1000 μM): 43 (2) %
residual metabolism (% of control), E2-3-β-D-glucuronide ([3]; liver 062101, inhibitor 100 μM): 59 (2), obs %
residual metabolism (% of control), E2-3-β-D-glucuronide [4]: 49 (1), obs %
residual metabolism (% of control), 2ME2 MG1 ([5]; inhibitor 50 μM): 91 (1) %
residual metabolism (% of control), 2ME2 MG1 ([5]; inhibitor 100 μM): 82 (2) %

C=CCc1ccc(O)c(OC)c1 [Eugenol]
% of control metabolism, raloxifene G1 ([1]; inhibitor 50 μM): 91 (1) %
% of control metabolism, raloxifene G2 ([1]; inhibitor 50 μM): 96 (5) %
inhibition of raloxifene glucuronidation, in words (UGT1A8; UGT1A8): ineffective
residual metabolism (percentage of control), zidovudine glucuronidation ([2]; inhibitor 500 μM): 84 (2) %
residual metabolism (percentage of control), zidovudine glucuronidation ([2]; inhibitor 1000 μM): 48 (4) %
residual metabolism (% of control), E2-17-β-D-glucuronide ([6]; inhibitor 50 μM): obs, 94 (5) %
residual metabolism (% of control), E2-17-β-D-glucuronide ([6]; inhibitor 100 μM): obs, 89 (6) %
inhibition of raloxifene glucuronidation, in words (UGT1A9; UGT1A9): amongst the best inhibitors
residual metabolism (% of control), 2ME2 MG1 ([5]; inhibitor 100 μM): 104 (4) %

CCCOC(=O)c1cc(O)c(O)c(O)c1 [Propyl gallate]
residual metabolism (percentage of control), zidovudine glucuronidation ([2]; inhibitor 500 μM): 77 (2) %

O=C(OC[C@H]1O[C@@H](OC(=O)c2cc(O)c(O)c(OC(=O)c3cc(O)c(O)c(O)c3)c2)[C@H](OC(=O)c2cc(O)c(O)c(OC(=O)c3cc(O)c(O)c(O)c3)c2)[C@@H](OC(=O)c2cc(O)c(O)c(OC(=O)c3cc(O)c(O)c(O)c3)c2)[C@@H]1OC(=O)c1cc(O)c(O)c(OC(=O)c2cc(O)c(O)c(O)c2)c1)c1cc(O)c(O)c(OC(=O)c2cc(O)c(O)c(O)c2)c1 [Tannic acid]
% of control metabolism, raloxifene G1 ([1]; inhibitor 10 μM): 39 (7) %
% of control metabolism, raloxifene G2 ([1]; inhibitor 10 μM): 47 (8) %
activity at 15 min, 10 µM (UGT1A8; formation of glucuronide G1, % of control metabolism, raloxifene G1, UGT1A8): 73%
activity at 15 min, 10 µM (UGT1A8; formation of glucuronide G2, % of control metabolism, raloxifene G2, UGT1A8): 75%
residual metabolism (percentage of control), zidovudine glucuronidation ([2]; inhibitor 50 μM): 54 (2) % and 50 (4) %
residual metabolism (percentage of control), zidovudine glucuronidation ([2]; inhibitor 100 μM): 42 (2) % and 37 (4) %
residual metabolism (percentage of control), zidovudine glucuronidation ([2]; inhibitor 200 μM): 20 (2) %
residual metabolism (% of control), E2-3-β-D-glucuronide ([3]; liver 032101, inhibitor 10 μM): 14 (1) %
residual metabolism (% of control), E2-17-β-D-glucuronide ([3]; liver 032101, inhibitor 10 μM): 75 (3) %
residual metabolism (% of control), E2-3-β-D-glucuronide ([3]; liver 062101, inhibitor 10 μM): 26 (4) %
residual metabolism (% of control), E2-17-β-D-glucuronide ([3]; liver 062101, inhibitor 10 μM): 72 (3) %
Inhibition of raloxifene glucuronidation, UGT1A9, first line per inhibitor (G1) (UGT1A9; inhibitor 5 μM): 53 (2)
Inhibition of raloxifene glucuronidation, UGT1A9, first line per inhibitor (G1) (UGT1A9; inhibitor 50 μM): 17 (0)
activity at 15 min, 5 µM (UGT1A9; formation of glucuronide G1, % of control metabolism, raloxifene G1, UGT1A9, inhibitor 5 μM): 53%
activity at 15 min, 10 µM (UGT1A9; formation of glucuronide G1, % of control metabolism, raloxifene G1, UGT1A9, inhibitor 10 μM): 44%
activity at 15 min, 25 µM (UGT1A9; formation of glucuronide G1, % of control metabolism, raloxifene G1, UGT1A9, inhibitor 25 μM): 21%
activity at 15 min, 50 µM (UGT1A9; formation of glucuronide G1, % of control metabolism, raloxifene G1, UGT1A9, inhibitor 50 μM): 17%
activity at 15 min, 5 µM (UGT1A9; formation of glucuronide G2, % of control metabolism, raloxifene G2, UGT1A9, inhibitor 5 μM): 76%
activity at 15 min, 10 µM (UGT1A9; formation of glucuronide G2, % of control metabolism, raloxifene G2, UGT1A9, inhibitor 10 μM): 45%
activity at 15 min, 25 µM (UGT1A9; formation of glucuronide G2, % of control metabolism, raloxifene G2, UGT1A9, inhibitor 25 μM): 19%
activity at 15 min, 50 µM (UGT1A9; formation of glucuronide G2, % of control metabolism, raloxifene G2, UGT1A9, inhibitor 50 μM): 42%
Inhibition of raloxifene glucuronidation, UGT1A9, second line per inhibitor (G2) (UGT1A9; inhibitor 5 μM): 76 (3)
Inhibition of raloxifene glucuronidation, UGT1A9, second line per inhibitor (G2) (UGT1A9; inhibitor 10 μM): 45 (1)
Inhibition of raloxifene glucuronidation, UGT1A9, second line per inhibitor (G2) (UGT1A9; inhibitor 25 μM): 19 (3)
Inhibition of raloxifene glucuronidation, UGT1A9, second line per inhibitor (G2) (UGT1A9; inhibitor 50 μM): 42 (5)
residual metabolism (% of control), 2ME2 MG1 ([5]; inhibitor 2 μM): 63 (1) %
residual metabolism (% of control), 2ME2 MG1 ([5]; inhibitor 5 μM): 49 (1) %
residual metabolism (% of control), 2ME2 MG1 ([5]; inhibitor 10 μM): 42 (1) %
residual metabolism (% of control), 2ME2 MG1 ([5]; inhibitor 25 μM): 5 (0) %
residual metabolism (% of control), 2ME2 MG1 ([5]; inhibitor 50 μM): <LOQ
